Earlier results, collected in paper PMC9502836, “Zika Virus Inhibitors Based on a 1,3-Disubstituted 1H-Pyrazolo[3,4-d]pyrimidine-amine Scaffold” (Molecules, 2022).

What was measured:
ZIKV = system: ZIKV; set-up: method as in PMID 34206327; details: Huh7 cells, cited from earlier work; for EC50: read-out: Titer Reduction Assay EC50
Huh7 cells = system: Huh7 cells; set-up: method as in PMID 34206327; details: cited from earlier work
luciferase reporter ZIKV = details: Huh7 cells, cited from earlier work

| SMILES | EC50 (ZIKV) [µM] | CC50 (Huh7 cells) [µM] | ZIKV Reporter Assay Inhibition (%) at 10 µM (luciferase reporter ZIKV; 10 µM) [%] | EC50 (luciferase reporter ZIKV) [µM] | Titer Reduction Assay % at 8.5 µM (ZIKV; 8.5 µM) [%] | ZIKV Reporter Assay Viability (%) at 10 µM (Huh7 cells; 10 µM) [%] |
| --- | --- | --- | --- | --- | --- | --- |
| O=[N+]([O-])c1ccc(Cn2ccc3c(NCc4cccc(Cl)c4)ncnc32)cc1 [Compound 1] | 5.2 | 20 |  |  |  |  |
| Cc1cc(N)c2cc(NC(=O)Nc3ccc4nc(C)cc(N)c4c3)ccc2n1 [NSC 12155] | 7.34 | 23 | 68 | 2.18 | 72 | 70 |
